Assay results published in patent publication US7465471B2, “Palatability of aquaculture feed” (Novus International, Inc., priority 2003, dated 2008).
Where a name gives a salt, the structure may show the parent alone. Read-outs that look alike come from different tables or passages of the source.

Key:
mold = test: Mold growth in starter mash by CO2 formation in headspace (Examples 7, 8); conditions: basal diet 85.2% dry matter; 2.0, 1.5 and 1.0 lb/ton; FIG. 12
Procedure: Fungal growth in basal starter mash was studied in compositions supplemented with DLM or Alimet® as the methionine source. Total microbial growth was monitored by measuring carbon dioxide (CO2) formation in sealed vessels at 28° C. over time.
The technique of using a closed system and measuring CO2 formation has been verified as an approximation of the conditions found in grain storage bins. See, e.g., Muir et al., Trans. ASAE, 28(5) 1673-1675 (1985), the contents of which are hereby incorporated by reference in their entirety.
A mash starter mash feed (formulation shown in Table 9, below) was subdivided into three groups: basal (control), 0.2% DLM, or 0.2% Alimet®. The feed studied had no commercial mold inhibitors added, and is representative of a typical broiler feed.
Initial moisture of the feed was 10.8%. After the addition of Alimet® or DLM, the moisture of the samples was adjusted by the addition of 2%, 4%, or 6% sterile distilled water to promote mold growth, achieving three moisture groups: […].
For each study, four replicate samples of each moisture group were mixed, and 600 g of the mixture was placed into 1 L containers, sealed, and placed at 28° C. in a temperature-controlled room. Draeger Detector tubes (CO2-measuring, obtained from Fisher Scientific) were used to measure the developed CO2 at different days following vessel sealing (two measurements were made per week). Draeger Short-Term Detector Tubes are glass tubes filled with inert carrier and an indicating reagent. The reagent produces a colorimetric indication in the presence of a particular gas (CO2). The concentration of gas is read directly from the discoloration on the tube's printed scale.
The specific mold species present were not identified. Statistical analysis was accomplished by using Duncan's multiple range test (SAS). Different letters on individual time points in FIGS. 9-11 indicate statistical differences of P<0.05.
The experiment described above in Example 7 was repeated with blends of 2.0 lb/ton, 1.5 lb/ton, 1.0 lb/ton or 0.5 lb/ton of 65% propionic acid and either […]. The blends were prepared according to the matrix outlined in Table 8, below. The 65% propionic acid was buffered with ammonium hydroxide to a pH of 5.5.

Salmonella = conditions: for Average cfu/g / Average log / Average Δ log: protocol of Example 9; for Average Δ log: versus control; for Δ log: Table 11, 90 min 37 C
Procedure: Tests were carried out using 1 g feed (crumble ground) with 6% meat and bone meal (“MBM”). […] The acid solutions were added to the feed as indicated below; water (1 mL) and 150 mM HCl (1.8 mL) was added to bring the pH to 4.0. Naldixic Acid resistant Salmonella (provided by Dr. Stan Bailey, USDA/ARS, Athens, Ga.) (initial colony count=40,000 cfu/g) was added, and the feed solutions were incubated at 37 C for 90 min. Each sample was diluted with 6 mL H2O, plated, and counted the following day.

S. enteritidis = S. enteritidis colony counts in broth (Examples 1-3, 17); conditions: pH 4.5; for log cfu/mL: Table 24, blends total 5 g/L, control […]; for log cfu/mL (S. enteritidis colony counts in broth): total 5 g/L, protocol of Example 1; for inhibitory effect on S. enteritidis: 5 g/l, Example 17
E. coli (ATCC 25922) = test: E. coli populations in trypticase soy broth with acid:Alimet blends (Example 4); assay type: cell-based; conditions: Table 7, total 6 g/L, initial 4.97 log cfu/mL
Excerpt: Blends of organic acid:Alimet® of 2:1 and 5:1 were studied, at a total concentration (organic acid+Alimet®) of 6 g/L.
The pH of the solutions were originally adjusted to pH 5 by addition of HCl and/or NaOH as needed. Activated E. coli culture solutions were transferred to fresh soy broth twice at 24-hour intervals prior to before addition of the organic acid:Alimet® blend. E. coli culture solutions were centrifuged; pellet produced was re-suspended with Butterfield buffer, and the resulting solutions were diluted to approximately 10^7 CFU E. coil/mL.
Bottles were inoculated with 100 μL of prepared bacterial suspension and an organic acid:Alimet® blend. Samples were taken after five and 24 hours of incubation, serially diluted and spread-plated on trypticase soy agar, and incubated at 35° C. for 24 hours.

[1] = test system: Common carp, Cyprinus carpio L.; test: Feeding preference of common carp, number of bites (Example 25); assay type: in vivo; conditions: for Bites/10 minutes: test diet vs control diet in same tank
Procedure: Common carp, Cyprinus carpio L. from a commercial fish farm were acquired and sorted to common body weight and length, about 20 g and 8-11 cm, respectively. […] Diets were mixed with adequate water to create a stable feed ball. […] Twenty tanks (45 cm×40 cm×45 cm) were dedicated the feeding behavior assessment. Two fish were housed in each tank with two feeding bars per tank. […] The water in each tank was aerated 24 h a day and the fish were fed the control diet under the above conditions for one week prior to the study. To evaluate preference, the control and test diets were each placed on one of the two bars in each tank.

E. coli = E. coli colony counts over time in soy broth at pH 4 or 7.3 (Example 5); assay type: cell-based; conditions: FIG. 5
Procedure: The cultures were incubated, and colony counts performed at increasing times.

[2] = Table 26, acid or formaldehyde plus Alimet
[3] = Table 34, formulations of Table 33 (g/kg)
[4] = Table 37, formulations of Table 36 (g/kg)
[5] = Table 38, formulations of Table 36 (g/kg)

CCC(=O)O [65% propionic acid, propionic acid]
delay of the onset of mold growth (mold): about 11 days

CCCC(=O)O [Blend A16]
log cfu/g (Salmonella; Table 13, blends without Alimet, control 4.7): 2.7 log cfu/g | Δ log reduction (Salmonella; Table 13, blends without Alimet, vs control): 2.0

O=CO [Blend A81]
log cfu/mL (S. enteritidis): 3.93 log cfu/mL

CCCC(=O)O [Blend A87]
log cfu/mL (S. enteritidis): 4.44 log cfu/mL

O=C(O)CC(O)(CC(=O)O)C(=O)O [Blend A93]
log cfu/mL (S. enteritidis): 4.74 log cfu/mL

O=C(O)/C=C/C(=O)O [Blend A99]
log cfu/mL (S. enteritidis colony counts in broth) (S. enteritidis; Table 25, acid plus Alimet): 4.68 log cfu/mL

CC(O)C(=O)O (stereo not shown) [Blend A105]
log cfu/mL (S. enteritidis colony counts in broth) (S. enteritidis; Table 25, acid plus Alimet): 4.44 log cfu/mL

O=C(O)CC(O)C(=O)O (stereo not shown) [Blend A111]
log cfu/mL (S. enteritidis colony counts in broth) (S. enteritidis; Table 25, acid plus Alimet): 5.01 log cfu/mL

CCC(=O)O [Blend A117]
log cfu/mL (S. enteritidis colony counts in broth) (S. enteritidis; [2]): 4.34 log cfu/mL

O=P(O)(O)O [Blend A123]
log cfu/mL (S. enteritidis colony counts in broth) (S. enteritidis; [2]): 4.68 log cfu/mL

C=O [Blend A129]
log cfu/mL (S. enteritidis colony counts in broth) (S. enteritidis; [2]): −0.30 log cfu/mL

CCCC(=O)O [Blend A147]
Trial 1 cfu/g (Salmonella; Table 34): 22,200 cfu/g | Trial 2 cfu/g (Salmonella; Table 34): 15,400 cfu/g | Average cfu/g (Salmonella; [3]): 18,800 cfu/g | Average log (Salmonella; [3]): 4.3 | Average Δ log (Salmonella; Table 34): 0.4

CCCC(=O)O [Blend A177]
Trial 1 cfu/g (Salmonella; Table 37): 5,400 cfu/g | Trial 2 cfu/g (Salmonella; Table 37): 7,000 cfu/g | Trial 3 cfu/g (Salmonella; Table 37): 6,600 cfu/g | Average cfu/g (Salmonella; [4]): 6,333 cfu/g | Average log (Salmonella; [4]): 3.8 | Average Δ log (Salmonella; Table 37): 0.5

CCC(=O)O [Blend A204]
Trial 1 cfu/g (Salmonella; Table 38): 5,400 cfu/g | Trial 2 cfu/g (Salmonella; Table 38): 1,600 cfu/g | Average cfu/g (Salmonella; [5]): 3,500 cfu/g | Average log (Salmonella; [5]): 3.5 | Average Δ log (Salmonella; Table 38): 0.6

CSCCC(O)C(=O)O (stereo not shown) [Blend A207]
Trial 1 cfu/g (Salmonella; Table 38): 0 cfu/g | Trial 2 cfu/g (Salmonella; Table 38): 0 cfu/g | Trial 3 cfu/g (Salmonella; Table 38): 0 cfu/g | Trial 4 cfu/g (Salmonella; Table 38, Trial 4): 0 cfu/g | Average cfu/g (Salmonella; [5]): 0 cfu/g | Average Δ log (Salmonella; Table 38): 4.2

Cl [HCl, hydrochloric acid]
log cfu/mL t = 4 h (E. coli (ATCC 25922)): 7.85 log cfu/mL | log cfu/mL t = 24 h (E. coli (ATCC 25922)): 8.34 log cfu/mL

CSCCC(O)C(=O)O (stereo not shown) [MHA, methionine hydroxy analog]
Bites/10 minutes ([1]; MHA 0.077 % Inclusion): 74.39 ± 14.14 Bites/10 minutes | Bites/10 minutes ([1]; MHA 0.154 % Inclusion): 67.73 ± 23.18 Bites/10 minutes | Bites/10 minutes ([1]; MHA 0.308 % Inclusion): 63.52 ± 20.23 Bites/10 minutes | number of bites vs control diet ([1]; common carp, 10 minutes, 0.07-0.28% Alimet or 0.077-0.308% MHA in diet): significantly higher

O=P(O)(O)O [Phosphoric, phosphoric acid]
inhibitory effect on S. enteritidis (S. enteritidis): do not show a significant inhibitory effect

CCCC(=O)O [butyric, butyric acid]
Δ log (Salmonella; 10 g/L, vs control): 0.7 | Δ log (Salmonella; 30 g/L, vs control): 4.0 | Δ log (Salmonella; 50 g/L, vs control): 4.0

O=C(O)/C=C/C(=O)O [fumaric, fumaric acid]
inhibitory effect on S. enteritidis (S. enteritidis): do not show a significant inhibitory effect

CC(O)C(=O)O (stereo not shown) [lactic, lactic acid]
decrease of colony counts of E. coli vs hydrochloric acid (E. coli): better than hydrochloric acid | inhibitory effect on S. enteritidis (S. enteritidis): do not show a significant inhibitory effect

O=C(O)CC(O)C(=O)O (stereo not shown) [malic, malic acid]
inhibitory effect on S. enteritidis (S. enteritidis): do not show a significant inhibitory effect

CCC(=O)O [propionic, propionic acid]
inhibitory effect on S. enteritidis (S. enteritidis): do not show a significant inhibitory effect
